From PubChem BioAssay AID330 (DTP/NCI, 2004) come the findings set out here.

For this assay, the system named is P388 leukemia ip, CD2F1 mice, survival T/C. Briefly: NCI In Vivo Anticancer Drug Screen. Data for tumor model P388 Leukemia (intraperitoneal) in CD2F1 (CDF1) mice. The following applies: endpoint: median survival time, higher = longer survival. An outline of the steps:
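Mice carrying the transplanted tumor received test compound or vehicle. Survival was recorded in each group, and the value is the treated-group measurement divided by that of the vehicle-treated control group.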

The mark [1] stands for this setting: dose: 60.0 mg/kg/injection, schedule: Q01DX005 (ip), vehicle: Klucel (hydroxypropylcellulose) (HPC).
[2] abbreviates: dose: 120.0 mg/kg/injection, schedule: Q01DX005 (ip), vehicle: Klucel (hydroxypropylcellulose) (HPC).
Where [3] appears, read: dose: 240.0 mg/kg/injection, schedule: Q01DX005 (ip), vehicle: Klucel (hydroxypropylcellulose) (HPC).
The mark [4] stands for this setting: dose: 50.0 mg/kg/injection, schedule: Q01DX009 (ip), vehicle: saline with Tween-80.
Setting [5] is: dose: 100.0 mg/kg/injection, schedule: Q01DX009 (ip), vehicle: saline with Tween-80.
Setting [6] is: dose: 200.0 mg/kg/injection, schedule: Q01DX009 (ip), vehicle: saline with Tween-80.
Where [7] appears, read: dose: 25.0 mg/kg/injection, schedule: Q01DX009 (ip), vehicle: saline with Tween-80.
Where [8] appears, read: dose: 50.0 mg/kg/injection, schedule: Q01DX005 (ip), vehicle: saline.
Setting [9] is: dose: 100.0 mg/kg/injection, schedule: Q01DX005 (ip), vehicle: saline.
Setting [10] is: dose: 200.0 mg/kg/injection, schedule: Q01DX005 (ip), vehicle: saline.
The mark [11] stands for this setting: dose: 6.25 mg/kg/injection, schedule: Q01DX009 (ip), vehicle: saline with Tween-80.
Setting [12] is: dose: 50.0 mg/kg/injection, schedule: Q01DX009 (ip), vehicle: Klucel (hydroxypropylcellulose) (HPC).
Setting [13] is: dose: 100.0 mg/kg/injection, schedule: Q01DX009 (ip), vehicle: Klucel (hydroxypropylcellulose) (HPC).
Setting [14] is: dose: 200.0 mg/kg/injection, schedule: Q01DX009 (ip), vehicle: Klucel (hydroxypropylcellulose) (HPC).

Where “and” joins values, the source holds several entries; their conditions need not be identical. Equal values may be shown once. Toxic doses and inconclusive results are not listed. Peptide text beside a SMILES is read from it. * marks the point of attachment. Propionyl = CCC(=O)*; Bn = c1ccc(C*)cc1

In the case of `O=C1CCSC(=S)N1c1ccc(F)cc1F`, the T/C was 92 % of control (dose: 6.25 mg/kg/injection, schedule: Q01DX009 (ip), vehicle: saline); 94 % of control (dose: 12.5 mg/kg/injection, schedule: Q01DX009 (ip), vehicle: saline); 91 % of control (dose: 25.0 mg/kg/injection, schedule: Q01DX009 (ip), vehicle: saline); 96 % of control (dose: 100.0 mg/kg/injection, schedule: Q01DX009 (ip), vehicle: saline); 90 % of control (dose: 200.0 mg/kg/injection, schedule: Q01DX009 (ip), vehicle: saline); 92 % of control (dose: 200.0 mg/kg/injection, schedule: Q01DX009 (ip), vehicle: suspension in saline).
In the case of `O=C1N[C@H]2[C@H](O)[C@H](O)[C@@H](O)[C@H](O)[C@@H]2c2cc3c(c(O)c21)OCO3`, the T/C by setting is: (dose: 0.18 mg/kg/injection, schedule: Q01DX009 (ip), vehicle: saline + Tween-80 + alcohol) 113 % of control; (dose: 0.37 mg/kg/injection, schedule: Q01DX009 (ip), vehicle: saline + Tween-80 + alcohol) 122 % of control; (dose: 0.38 mg/kg/injection, schedule: Q01DX005 (iv), vehicle: other) 105 % of control; (dose: 0.38 mg/kg/injection, schedule: Q01DX009 (ip), vehicle: saline + alcohol) 119 % of control; (dose: 0.75 mg/kg/injection, schedule: Q01DX005 (ip), vehicle: other) 122 % of control; (dose: 0.75 mg/kg/injection, schedule: Q01DX005 (ip), vehicle: saline + alcohol) 116 % of control. The T/C is, setting by setting: (dose: 0.75 mg/kg/injection, schedule: Q01DX005 (iv), vehicle: other) 105 % of control; (dose: 1.5 mg/kg/injection, schedule: Q01DX005 (iv), vehicle: other) 106 % of control; (dose: 3.0 mg/kg/injection, schedule: Q01DX005 (iv), vehicle: other) 108 % of control; (dose: 3.0 mg/kg/injection, schedule: Q01DX009 (ip), vehicle: saline + Tween-80 + alcohol) 160 % of control; (dose: 3.0 mg/kg/injection, schedule: Q01DX009 (ip), vehicle: saline + alcohol) 161 % of control; (dose: 3.12 mg/kg/injection, schedule: Q01DX009 (ip), vehicle: saline + alcohol) 151 % of control. The T/C is, setting by setting: (dose: 6.0 mg/kg/injection, schedule: Q01DX005 (ip), vehicle: other) 152 % of control; (dose: 6.0 mg/kg/injection, schedule: Q01DX005 (iv), vehicle: other) 121 % of control; (dose: 6.0 mg/kg/injection, schedule: Q01DX009 (ip), vehicle: saline + Tween-80 + alcohol) 162 % of control; (dose: 6.0 mg/kg/injection, schedule: Q01DX009 (ip), vehicle: saline + alcohol) 165 % of control; (dose: 6.25 mg/kg/injection, schedule: Q01DX005 (ip), vehicle: saline + alcohol) 105 % of control; (dose: 6.25 mg/kg/injection, schedule: Q01DX009 (ip), vehicle: saline + alcohol) 155 % of control and 173 % of control. Further, the T/C reads like this: (dose: 12.0 mg/kg/injection, schedule: Q01DX005 (ip), vehicle: other) 155 % of control; (dose: 12.0 mg/kg/injection, schedule: Q01DX005 (ip), vehicle: saline + alcohol) 156 % of control; (dose: 12.5 mg/kg/injection, schedule: Q01DX009 (ip), vehicle: saline + alcohol) 203 % of control.
Turning to `CCN1c2ccccc2SC1CC1=C(O)C(CC2Sc3ccccc3N2CC)=C1O` (stereo unspecified), the T/C is, setting by setting: under setting [1], 91 % of control; under setting [2], 96 % of control; under setting [3], 89 % of control.
Consider `N#CC12OC1(Cl)CCCC2(Cl)Cl` (stereo unspecified), for which the T/C by setting is: under setting [4], 95 % of control; under setting [5], 95 % of control; under setting [6], 86 % of control.
Take `CCCCCCCN(CCCCCCC)CC(O)c1c(OC)c2ccccc2c2ccccc12` (stereo unspecified): the T/C is, setting by setting: under setting [7], 89 % of control; under setting [4], 88 % of control.
With `C/C=C1/CN2CCC1CC2C(O)c1ccnc2ccc(OCCO)cc12` (stereo unspecified), the T/C was 97 % of control under setting [8], 93 % of control under setting [9] and 94 % of control under setting [10].
Regarding `CC(=O)O/N=C/c1ccncc1`, the T/C is 108 % of control (dose: 25.0 mg/kg/injection, schedule: Q04DX003 (ip), vehicle: saline); 101 % of control (dose: 50.0 mg/kg/injection, schedule: Q04DX003 (ip), vehicle: saline); 107 % of control (dose: 100.0 mg/kg/injection, schedule: Q04DX003 (ip), vehicle: saline); 109 % of control (dose: 200.0 mg/kg/injection, schedule: Q04DX003 (ip), vehicle: saline); 117 % of control (dose: 400.0 mg/kg/injection, schedule: Q04DX003 (ip), vehicle: saline).
As for `O=S(=O)(CCl)OCCF`, the T/C (dose: 1.56 mg/kg/injection, schedule: Q01DX009 (ip), vehicle: saline with Tween-80) was 110 % of control; the T/C (dose: 3.12 mg/kg/injection, schedule: Q01DX009 (ip), vehicle: saline with Tween-80) is 102 % of control; the T/C under setting [11] was 105 % of control and 117 % of control.
On to `O=[N+]([O-])c1ccc(N/N=C\c2c(Cl)[nH]c3ccccc23)c([N+](=O)[O-])c1`, for which the T/C is 93 % of control under setting [4], 93 % of control under setting [5] and 87 % of control under setting [6].
Turning to `COC(=O)C(=C\c1nc2ccc([N+](=O)[O-])cc2s1)/C(C(=O)OC)=C1\CCCN1C`, the T/C runs as follows: under setting [8], 100 % of control; under setting [9], 97 % of control; under setting [10], 97 % of control.
Regarding `CCOC(=O)C(Cc1ccc(N(CCCl)CCCl)cc1)NC=O` (stereo unspecified), the T/C (dose: 6.25 mg/kg/injection, schedule: Q04DX003 (ip), vehicle: saline with Tween-80) was 150 % of control; the T/C (dose: 12.5 mg/kg/injection, schedule: Q04DX003 (ip), vehicle: saline with Tween-80) was 154 % of control; the T/C under setting [7] was 181 % of control; the T/C under setting [4] is 209 % of control; the T/C (dose: 50.0 mg/kg/injection, schedule: Q04DX003 (ip), vehicle: saline with Tween-80) was 181 % of control; the T/C under setting [5] is 100 % of control. Also, the T/C is, setting by setting: (dose: 100.0 mg/kg/injection, schedule: Q04DX003 (ip), vehicle: saline with Tween-80) 204 % of control and 216 % of control; (dose: 200.0 mg/kg/injection, schedule: Q04DX003 (ip), vehicle: saline with Tween-80) 91 % of control.
As for `N#Cc1c2ccc(N)cc2nc2cc(N)ccc12`, the T/C is 100 % of control under setting [1], 105 % of control under setting [2] and 118 % of control under setting [3].
Regarding `C(=Nc1ccc2c(c1)Cc1ccccc1-2)c1ccc2ccccc2c1`, the T/C (dose: 400.0 mg/kg/injection, schedule: Q04DX002 (ip), vehicle: saline) is 90 % of control.
For the compound `O=C(NC(=O)c1c(F)cccc1F)Nc1ccc(Cl)nc1`, the T/C (dose: 3.13 mg/kg/injection, schedule: Q01DX009 (ip), vehicle: saline with Tween-80) was 105 % of control; the T/C under setting [11] was 100 % of control; the T/C (dose: 12.5 mg/kg/injection, schedule: Q01DX009 (ip), vehicle: saline with Tween-80) is 102 % of control.
Take `C(=N/c1ccccn1)/c1ccc2c(c1)OCO2`: the T/C was 100 % of control under setting [12], 105 % of control under setting [13] and 101 % of control under setting [14].
As to `CCC(=O)NC(CSCc1ccccc1)C(=O)NC(CCC(=O)OC)C(=O)OC` (stereo unspecified) (Propionyl-Cys(Bn)-Glu(OMe)-OMe; configuration not given here), the T/C under setting [4] was 110 % of control, the T/C under setting [5] was 100 % of control and the T/C under setting [6] is 97 % of control.
Take `CSc1nc(N)c(C(=O)N(c2ccccc2)c2ccccc2)s1`: the T/C under setting [12] is 100 % of control, the T/C under setting [13] was 108 % of control and the T/C under setting [14] was 98 % of control.
